Data set [1] has as its target Sodium channel protein type 10 subunit alpha (Homo sapiens, UniProt Q9Y5Y9). Briefly: Inhibition of human Nav1.8 expressed in HEK cells by patch-clamp electrophysiology method. The format is cell-based. For orientation: Patch clamp records ionic current or voltage across a cell membrane.
Data set [2] concerns the target Sodium channel protein type 1 subunit alpha (Homo sapiens, UniProt P35498). Put plainly: Inhibition of human Nav1.1.
For data set [3], the target named is Sodium channel protein type 2 subunit alpha (Homo sapiens, UniProt Q99250). Put plainly: Inhibition of human Nav1.2.
Data set [4] concerns the target Sodium channel protein type 5 subunit alpha (Homo sapiens, UniProt Q14524). Briefly: Inhibition of human Nav1.5.
In data set [5] the target is Voltage-gated inwardly rectifying potassium channel KCNH2 (Homo sapiens, UniProt Q12809). Briefly: Inhibition of human ERG.
Sequence of Voltage-gated inwardly rectifying potassium channel KCNH2 (Q12809 whole entry): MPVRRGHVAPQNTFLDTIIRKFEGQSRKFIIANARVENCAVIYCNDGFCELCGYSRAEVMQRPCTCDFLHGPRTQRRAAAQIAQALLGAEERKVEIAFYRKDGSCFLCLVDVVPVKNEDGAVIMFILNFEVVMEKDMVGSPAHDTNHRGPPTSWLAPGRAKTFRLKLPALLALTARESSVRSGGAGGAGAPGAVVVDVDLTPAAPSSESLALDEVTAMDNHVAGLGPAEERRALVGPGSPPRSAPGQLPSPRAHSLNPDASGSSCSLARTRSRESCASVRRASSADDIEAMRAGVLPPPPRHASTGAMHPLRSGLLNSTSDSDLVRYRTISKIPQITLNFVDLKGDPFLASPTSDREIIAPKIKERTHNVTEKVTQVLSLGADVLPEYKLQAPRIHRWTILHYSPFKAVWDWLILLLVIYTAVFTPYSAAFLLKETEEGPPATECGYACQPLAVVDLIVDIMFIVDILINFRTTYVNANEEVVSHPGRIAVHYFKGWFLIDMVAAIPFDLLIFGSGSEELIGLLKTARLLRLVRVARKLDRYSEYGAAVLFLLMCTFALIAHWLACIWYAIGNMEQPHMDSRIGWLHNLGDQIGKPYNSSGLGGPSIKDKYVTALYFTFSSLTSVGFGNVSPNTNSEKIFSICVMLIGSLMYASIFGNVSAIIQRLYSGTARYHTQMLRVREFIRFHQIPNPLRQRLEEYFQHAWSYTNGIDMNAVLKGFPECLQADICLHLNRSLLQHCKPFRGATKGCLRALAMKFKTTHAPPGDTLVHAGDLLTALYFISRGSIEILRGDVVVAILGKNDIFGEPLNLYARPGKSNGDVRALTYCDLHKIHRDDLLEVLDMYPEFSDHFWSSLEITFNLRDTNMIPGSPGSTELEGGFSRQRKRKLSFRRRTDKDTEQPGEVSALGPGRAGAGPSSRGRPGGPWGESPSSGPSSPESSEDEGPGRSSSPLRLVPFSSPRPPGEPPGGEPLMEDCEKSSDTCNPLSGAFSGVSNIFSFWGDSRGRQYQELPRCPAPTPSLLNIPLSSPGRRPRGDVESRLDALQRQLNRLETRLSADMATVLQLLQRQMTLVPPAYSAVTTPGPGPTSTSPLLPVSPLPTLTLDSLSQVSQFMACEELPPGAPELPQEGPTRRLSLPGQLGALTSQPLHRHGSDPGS
Data set [6] can be described thus: Apparent permeability from apical to basolateral in RRCK cells. The conditions noted are these: dog, MDCK. The format is ADME, cell-based, Canis lupus familiaris, MDCKII-LE.
Data set [7] is described as follows: Stability in human liver microsomes assessed per mg protein. The format is ADME, Microsome. (Liver microsomes are a subcellular fraction often used to study metabolism.)
Data set [8] in a line: Stability in human hepatocytes assessed per million cells. Type of data set: ADME, cell-based, Hepatocyte.
The nature of data set [9]: Lipophilicity, log D of the compound. The following applies: octanol/water. The format is physicochemical.
Data set [10] can be described thus: Dissociation constant, pKa of the compound. The format is physicochemical.
Data set [11] can be described thus: Solubility of the compound at pH 7.4. The following applies: buffer. The format is physicochemical.
Data set [12] deals with Sodium channel protein type 3 subunit alpha (Homo sapiens, UniProt Q9NY46). Briefly: Inhibition of human Nav1.3.
Data set [13] has as its target Sodium channel protein type 4 subunit alpha (Homo sapiens, UniProt P35499). Put plainly: Inhibition of human Nav1.4.
Data set [14] deals with Sodium channel protein type 8 subunit alpha (Homo sapiens, UniProt Q9UQD0). Put plainly: Inhibition of human Nav1.6.
Data set [15] addresses Sodium channel protein type 9 subunit alpha (Homo sapiens, UniProt Q15858). Briefly: Inhibition of human Nav1.7.
Data set [16] deals with T1, Potassium voltage-gated channel subfamily KQT member 1 (Homo sapiens, UniProt P51787).
T1 sequence (P51787 whole entry): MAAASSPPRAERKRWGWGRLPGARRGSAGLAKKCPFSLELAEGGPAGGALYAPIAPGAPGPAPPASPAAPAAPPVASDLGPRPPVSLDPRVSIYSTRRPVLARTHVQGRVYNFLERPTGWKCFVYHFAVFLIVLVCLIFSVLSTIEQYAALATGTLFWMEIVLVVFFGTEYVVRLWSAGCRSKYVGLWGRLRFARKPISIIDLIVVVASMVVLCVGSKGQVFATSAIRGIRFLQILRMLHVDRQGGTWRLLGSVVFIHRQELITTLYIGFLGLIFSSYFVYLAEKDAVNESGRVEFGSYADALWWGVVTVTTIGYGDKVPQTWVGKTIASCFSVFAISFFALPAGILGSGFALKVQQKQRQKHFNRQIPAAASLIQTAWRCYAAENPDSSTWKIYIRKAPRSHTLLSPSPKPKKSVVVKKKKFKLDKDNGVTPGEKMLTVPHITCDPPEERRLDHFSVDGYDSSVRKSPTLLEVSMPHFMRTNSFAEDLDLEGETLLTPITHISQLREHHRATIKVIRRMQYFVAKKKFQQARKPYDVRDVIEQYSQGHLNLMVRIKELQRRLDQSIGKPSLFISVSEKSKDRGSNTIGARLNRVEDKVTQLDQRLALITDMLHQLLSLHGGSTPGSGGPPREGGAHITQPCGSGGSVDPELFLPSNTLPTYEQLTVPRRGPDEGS
Briefly: Inhibition of KvLQT1 (unknown origin).

The target of data set [17] is Potassium voltage-gated channel subfamily A member 5 (Homo sapiens, UniProt P22460). Put plainly: Inhibition of Kv1.5 (unknown origin).
For data set [18], the target named is Potassium voltage-gated channel subfamily A member 1 (Homo sapiens, UniProt Q09470). Briefly: Inhibition of Kv1.1 (unknown origin).
For data set [19], the target named is Potassium voltage-gated channel subfamily A member 2 (Homo sapiens, UniProt P16389). Put plainly: Inhibition of Kv1.2 (unknown origin).
Data set [20] addresses Small conductance calcium-activated potassium channel protein 2 (Homo sapiens, UniProt Q9H2S1). Put plainly: Inhibition of SK2 (unknown origin).
Data set [21] addresses Voltage-gated T-type calcium channel (Homo sapiens, UniProt O95180+O43497+Q9P0X4). Put plainly: Inhibition of T-type calcium channel (unknown origin). Type of data set: protein assay.
Data set [22] deals with Voltage-gated L-type calcium channel (Homo sapiens, UniProt Q13936+Q13698+Q01668+O60840). Put plainly: Inhibition of L-type calcium channel (unknown origin). Type of data set: protein assay.
For data set [23], the target named is T2, Gamma-aminobutyric acid receptor subunit alpha-1/gamma-2 (Homo sapiens, UniProt P14867+P18507).
T2 sequence (P14867 whole entry): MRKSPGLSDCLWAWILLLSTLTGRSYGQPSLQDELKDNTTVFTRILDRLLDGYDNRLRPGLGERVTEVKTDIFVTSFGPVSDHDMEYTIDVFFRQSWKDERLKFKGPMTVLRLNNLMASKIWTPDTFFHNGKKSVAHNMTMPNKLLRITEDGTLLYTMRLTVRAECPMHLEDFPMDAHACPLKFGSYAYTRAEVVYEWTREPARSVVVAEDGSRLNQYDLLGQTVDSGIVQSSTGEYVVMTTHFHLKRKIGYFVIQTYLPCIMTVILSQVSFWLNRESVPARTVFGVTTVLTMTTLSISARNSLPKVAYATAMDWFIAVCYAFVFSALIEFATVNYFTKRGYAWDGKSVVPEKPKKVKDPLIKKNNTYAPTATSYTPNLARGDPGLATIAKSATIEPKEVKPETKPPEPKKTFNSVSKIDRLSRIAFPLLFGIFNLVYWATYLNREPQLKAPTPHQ
T2 sequence (P18507 whole entry): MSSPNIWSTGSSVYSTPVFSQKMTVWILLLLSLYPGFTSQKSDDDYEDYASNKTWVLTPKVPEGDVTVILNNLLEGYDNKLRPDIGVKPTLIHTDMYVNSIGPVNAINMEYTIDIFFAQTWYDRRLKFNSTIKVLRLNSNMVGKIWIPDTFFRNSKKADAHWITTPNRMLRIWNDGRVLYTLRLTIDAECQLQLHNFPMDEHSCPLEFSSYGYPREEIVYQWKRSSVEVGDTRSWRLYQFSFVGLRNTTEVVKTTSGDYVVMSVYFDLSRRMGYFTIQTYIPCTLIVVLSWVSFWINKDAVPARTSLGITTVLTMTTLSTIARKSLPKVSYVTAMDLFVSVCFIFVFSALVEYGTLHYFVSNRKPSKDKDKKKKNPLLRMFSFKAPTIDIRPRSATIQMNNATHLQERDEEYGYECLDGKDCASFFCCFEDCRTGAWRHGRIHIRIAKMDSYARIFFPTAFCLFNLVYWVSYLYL
Briefly: Inhibition of GABA receptor alpha1gamma2 (unknown origin). The format is protein-complex assay.

Data set [24] can be described thus: Plasma clearance in rat at 1 mg/kg, iv or 3 mg/kg, po. Type of data set: ADME, organism-based.
Data set [25] in a line: Unbound clearance in rat at 1 mg/kg, iv or 3 mg/kg, po. The format is ADME, organism-based. The following applies: in vivo.
The nature of data set [26]: Half life in rat at 1 mg/kg, iv or 3 mg/kg, po. Type of data set: ADME, organism-based. The following applies: in vivo.
Data set [27] is described as follows: AUC (0 to infinity) in rat at 1 mg/kg, iv or 3 mg/kg, po. The conditions noted are these: in vivo. Type of data set: ADME, organism-based.
Data set [28] can be described thus: Volume of distribution in rat at 1 mg/kg, iv or 3 mg/kg, po. Type of data set: ADME, organism-based. The following applies: in vivo.
Data set [29] is described as follows: Oral bioavailability in rat at 3 mg/kg. Type of data set: ADME, organism-based. The conditions noted are these: in vivo.
Data set [30] deals with Nav1.5 (SCN5A) (Homo sapiens, UniProt Q14524). Briefly: Inhibition of human Nav1.5 at 10 uM.

Broadly, the IC50 is the concentration at which inhibition is half-maximal. In general, Papp A→B refers to the apparent permeability from the apical to the basolateral side of a cell layer. In general, logD refers to the decadic logarithm of the distribution of all forms, ionised or not, between an organic phase and buffer at a given pH. Low readings indicate a more hydrophilic compound, high ones a more lipophilic compound. The pKa is the pH at which an ionisable group is half protonated. A low value points to a group that gives up its proton readily. In general, solubility refers to the dissolved amount per volume that the medium holds. The low end stands for a poorly soluble substance, the high end for a readily soluble substance. A word on the half-life: it is the time in which the quantity being followed falls by half. Broadly, the AUC(0-inf) is the area under the concentration-time curve extrapolated to infinity. Lower therefore signals low exposure. Usually bioavailability stands for dose-corrected exposure relative to a reference, in per cent. High values mean good availability, low ones poor availability. Usually inhibition stands for the change of the read-out against control, counted positive when it falls. A high value points to a response far below the control.

In brackets after ≈: the same amount, converted by molar mass.

Sequence of Sodium channel protein type 10 subunit alpha (Q9Y5Y9 whole entry): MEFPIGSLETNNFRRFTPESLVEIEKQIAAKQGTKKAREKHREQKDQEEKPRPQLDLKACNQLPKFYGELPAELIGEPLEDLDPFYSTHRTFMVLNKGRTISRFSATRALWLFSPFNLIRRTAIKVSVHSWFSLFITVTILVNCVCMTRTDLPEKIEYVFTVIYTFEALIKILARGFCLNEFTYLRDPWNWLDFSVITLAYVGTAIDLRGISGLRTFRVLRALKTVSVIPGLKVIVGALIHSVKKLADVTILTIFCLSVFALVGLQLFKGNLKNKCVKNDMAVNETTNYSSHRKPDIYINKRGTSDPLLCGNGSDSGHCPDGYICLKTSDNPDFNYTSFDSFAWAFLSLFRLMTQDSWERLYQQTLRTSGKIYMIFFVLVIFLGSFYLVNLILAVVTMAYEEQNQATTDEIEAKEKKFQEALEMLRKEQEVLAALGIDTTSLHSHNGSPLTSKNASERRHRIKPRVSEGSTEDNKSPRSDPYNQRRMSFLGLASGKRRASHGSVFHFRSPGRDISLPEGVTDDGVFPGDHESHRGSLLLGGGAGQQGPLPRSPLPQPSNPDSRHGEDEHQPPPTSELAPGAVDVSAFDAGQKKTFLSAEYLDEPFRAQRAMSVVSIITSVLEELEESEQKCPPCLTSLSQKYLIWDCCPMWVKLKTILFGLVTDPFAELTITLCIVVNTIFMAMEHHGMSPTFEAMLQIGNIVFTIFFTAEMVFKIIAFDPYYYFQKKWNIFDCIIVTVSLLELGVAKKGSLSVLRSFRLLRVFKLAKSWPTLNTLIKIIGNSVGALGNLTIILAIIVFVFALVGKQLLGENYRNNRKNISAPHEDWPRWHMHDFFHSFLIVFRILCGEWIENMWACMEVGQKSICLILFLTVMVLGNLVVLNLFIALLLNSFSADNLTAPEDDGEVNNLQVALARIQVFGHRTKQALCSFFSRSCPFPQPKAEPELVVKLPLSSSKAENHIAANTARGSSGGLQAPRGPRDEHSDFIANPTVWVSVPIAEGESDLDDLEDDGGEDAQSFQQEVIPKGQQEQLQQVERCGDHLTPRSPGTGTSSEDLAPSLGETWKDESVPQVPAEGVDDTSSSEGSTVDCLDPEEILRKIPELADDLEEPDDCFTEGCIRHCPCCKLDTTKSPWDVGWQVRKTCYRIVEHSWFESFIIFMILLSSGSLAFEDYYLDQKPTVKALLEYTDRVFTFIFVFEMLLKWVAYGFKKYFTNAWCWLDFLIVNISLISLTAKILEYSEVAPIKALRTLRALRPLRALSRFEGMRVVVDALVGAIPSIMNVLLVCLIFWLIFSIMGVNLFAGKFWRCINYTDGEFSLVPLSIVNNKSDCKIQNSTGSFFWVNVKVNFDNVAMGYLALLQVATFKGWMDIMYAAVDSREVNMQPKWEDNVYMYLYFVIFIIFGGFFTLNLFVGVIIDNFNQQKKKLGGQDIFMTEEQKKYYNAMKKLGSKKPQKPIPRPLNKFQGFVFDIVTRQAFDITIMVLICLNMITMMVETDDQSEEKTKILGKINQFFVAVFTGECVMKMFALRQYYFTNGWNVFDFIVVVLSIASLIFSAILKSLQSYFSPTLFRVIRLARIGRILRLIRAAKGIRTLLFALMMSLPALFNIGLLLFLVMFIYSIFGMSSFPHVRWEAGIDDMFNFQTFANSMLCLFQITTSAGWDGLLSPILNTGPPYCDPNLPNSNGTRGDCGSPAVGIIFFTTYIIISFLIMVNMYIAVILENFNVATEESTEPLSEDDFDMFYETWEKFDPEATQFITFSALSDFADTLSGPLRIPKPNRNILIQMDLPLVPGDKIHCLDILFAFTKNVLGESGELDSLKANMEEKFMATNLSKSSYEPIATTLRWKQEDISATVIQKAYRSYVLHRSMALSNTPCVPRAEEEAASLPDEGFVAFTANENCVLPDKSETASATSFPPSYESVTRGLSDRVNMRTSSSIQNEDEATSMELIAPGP
Sequence of Sodium channel protein type 5 subunit alpha (Q14524 whole entry): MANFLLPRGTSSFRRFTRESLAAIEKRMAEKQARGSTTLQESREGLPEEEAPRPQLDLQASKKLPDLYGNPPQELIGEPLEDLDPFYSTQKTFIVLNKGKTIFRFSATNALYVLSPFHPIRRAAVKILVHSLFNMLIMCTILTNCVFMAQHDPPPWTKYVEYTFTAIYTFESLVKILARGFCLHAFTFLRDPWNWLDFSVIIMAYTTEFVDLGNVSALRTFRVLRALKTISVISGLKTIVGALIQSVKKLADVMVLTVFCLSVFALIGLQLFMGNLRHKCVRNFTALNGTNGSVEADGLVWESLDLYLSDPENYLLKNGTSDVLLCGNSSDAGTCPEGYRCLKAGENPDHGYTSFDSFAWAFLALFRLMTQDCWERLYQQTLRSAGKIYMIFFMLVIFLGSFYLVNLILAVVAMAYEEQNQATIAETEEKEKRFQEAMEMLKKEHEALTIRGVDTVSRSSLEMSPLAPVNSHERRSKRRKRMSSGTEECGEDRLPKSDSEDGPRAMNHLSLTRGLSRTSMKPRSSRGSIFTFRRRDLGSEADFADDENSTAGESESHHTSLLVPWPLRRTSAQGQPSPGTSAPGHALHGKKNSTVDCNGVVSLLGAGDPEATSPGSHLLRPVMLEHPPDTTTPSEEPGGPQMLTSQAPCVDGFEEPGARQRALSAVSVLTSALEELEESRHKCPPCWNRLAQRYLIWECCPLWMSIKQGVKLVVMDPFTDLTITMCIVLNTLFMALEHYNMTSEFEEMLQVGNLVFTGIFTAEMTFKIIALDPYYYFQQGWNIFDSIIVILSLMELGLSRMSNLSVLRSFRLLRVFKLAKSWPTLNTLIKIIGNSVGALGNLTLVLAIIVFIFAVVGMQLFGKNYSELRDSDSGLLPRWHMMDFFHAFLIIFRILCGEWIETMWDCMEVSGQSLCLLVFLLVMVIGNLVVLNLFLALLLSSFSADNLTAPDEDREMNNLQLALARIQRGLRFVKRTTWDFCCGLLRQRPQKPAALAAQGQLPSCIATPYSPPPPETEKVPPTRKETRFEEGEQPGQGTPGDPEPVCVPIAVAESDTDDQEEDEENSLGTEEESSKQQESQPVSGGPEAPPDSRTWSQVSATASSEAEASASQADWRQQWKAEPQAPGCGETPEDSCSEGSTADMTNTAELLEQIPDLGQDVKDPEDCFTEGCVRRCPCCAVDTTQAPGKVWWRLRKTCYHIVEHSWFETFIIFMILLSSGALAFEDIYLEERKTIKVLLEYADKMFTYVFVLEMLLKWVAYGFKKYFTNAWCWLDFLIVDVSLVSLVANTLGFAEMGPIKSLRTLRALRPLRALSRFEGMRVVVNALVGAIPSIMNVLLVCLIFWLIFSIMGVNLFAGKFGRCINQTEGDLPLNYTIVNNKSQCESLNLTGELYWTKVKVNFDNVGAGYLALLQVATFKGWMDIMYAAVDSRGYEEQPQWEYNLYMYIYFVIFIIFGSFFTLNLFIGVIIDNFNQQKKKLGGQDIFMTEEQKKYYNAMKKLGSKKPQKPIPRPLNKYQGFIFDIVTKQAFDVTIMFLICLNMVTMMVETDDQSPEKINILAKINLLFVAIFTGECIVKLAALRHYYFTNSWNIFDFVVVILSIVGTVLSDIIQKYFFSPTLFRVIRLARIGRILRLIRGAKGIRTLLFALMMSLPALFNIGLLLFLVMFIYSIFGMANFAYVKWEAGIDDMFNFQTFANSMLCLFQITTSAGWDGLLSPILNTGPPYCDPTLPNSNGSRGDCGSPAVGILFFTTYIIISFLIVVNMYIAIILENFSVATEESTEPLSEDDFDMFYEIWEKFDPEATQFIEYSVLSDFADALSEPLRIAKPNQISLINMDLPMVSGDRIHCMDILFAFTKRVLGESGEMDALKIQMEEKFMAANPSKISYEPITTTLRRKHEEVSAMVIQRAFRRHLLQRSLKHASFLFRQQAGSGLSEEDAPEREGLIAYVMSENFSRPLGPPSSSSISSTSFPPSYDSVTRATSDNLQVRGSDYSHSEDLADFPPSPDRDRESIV

`CC(C)(C)c1ccc2[nH]c([C@@](C)(N)CO)nc2c1`: in data set [1], it took 65 nM to reach half-maximal inhibition (IC50).

Take `CO[C@H](C)[C@H](N)c1nc2cc(C(C)(C)C)ccc2[nH]1`: the IC50 in data set [1] was 24 nM.

As for `C[C@@H](C(N)=O)[C@H](N)c1nc2ccc(C(C)(C)C)cc2[nH]1` [PF-06305591], the IC50 is 15 nM in [1]; more than 30000 nM in data set [2]; more than 30000 nM in [3]; more than 30000 nM in data set [4]; more than 30000 nM in data set [5]; more than 30000 nM in data set [12]. Also, the IC50 in data set [13], in [14], in [15], in [16], in [17] and in data set [18] was more than 30000 nM in each case. Moreover, the IC50 in data set [19], in data set [20], in data set [21], in data set [22] and in [23] was more than 30000 nM in each case. For the same compound, the Papp A→B in data set [6] stood at 3.5 ×10⁻⁶ cm/s. Also, the Stability in data set [7] is less than 11 µL/min; in [8], less than 2 µL/min. The logD in [9] worked out at 2.1. Further, the pKa in data set [10] came to 5.9. Moreover, the solubility in data set [11] was determined as 2000 µg/mL (≈ 7.29 mM). The compound also displayed a clearance in data set [24] of 40 mL/min/kg. This compound showed a CL free in [25] of 214 mL/min/kg. Besides, in [26], the half-life was 1.5 h. This compound also gave an AUC(0-inf) in [27] of 962 ng·h/mL. Also, in [28], the Vd is 2.3 L/kg. In addition, the bioavailability in data set [29] was found to be 61%.

The compound `CO[C@H](C)[C@H](N)c1nc2cc(OC(F)(F)F)ccc2[nH]1` registered an IC50 in data set [1] of 2570 nM.

As to `CC(C)(C)c1ccc2nc([C@@H](N)CO)cnc2c1`, the IC50 in data set [1] was more than 1000 nM.

Take `CO[C@H](C)[C@H](N)c1nc2cc(-c3ccc(C#N)nc3)ccc2[nH]1`: the IC50 in data set [1] stood at 998 nM.

`CC(C)(C)c1ccc2ncc([C@H](N)CO)nc2c1` had an IC50 in [1] of more than 1000 nM.

`CC(C)c1ccc2[nH]c([C@@H](N)[C@@H](C)O)nc2c1` had an IC50 in [1] of 43 nM.

For the compound `CC(C)(C)c1ccc2ncc([C@@H](N)CO)nc2c1`, the IC50 in data set [1] is more than 1000 nM.

The compound `CC(C)(C)c1ccc2nc([C@H](N)CO)cnc2c1` showed an IC50 in [1] of more than 1000 nM.

As for `C[C@@H](O)[C@H](N)c1nc2cc(C(C)(C)C#N)ccc2[nH]1`, the IC50 in data set [1] worked out at 728 nM.

In data set [1], `CCC[C@H](N)c1nc2cc(C(C)(C)C)ccc2[nH]1` gave an IC50 of 2 nM.

Compound `C[C@@H](O)[C@H](N)c1nc2cc(C(F)(F)F)ccc2[nH]1` yielded an IC50 in data set [1] of 534 nM.

Take `CC(C)(C)c1ccc2[nH]c([C@H]3C[C@@H](O)CN3)nc2c1`: in [1], the IC50 was 31 nM.

In [1], `CC(C)(C)c1ccc2[nH]c([C@H]3CCCN3)nc2c1` registered an IC50 of 43 nM.

In the case of `CCCC(O)c1nc2cc(C(C)(C)C)ccc2[nH]1` (stereo not drawn), the IC50 in [1] is more than 1000 nM.

On to `C[C@@H](C(N)=O)[C@H](N)c1cn2cc(C(C)(C)C)ccc2n1`, for which the IC50 was more than 10000 nM in data set [4] and more than 72000 nM in data set [5]. In addition, the apparent permeability from apical to basolateral (Papp A→B) in [6] stood at 2.2 ×10⁻⁶ cm/s. Besides, the Stability was less than 11 µL/min in data set [7] and 2.5 µL/min in data set [8]. In [10], this compound displayed a pKa of 7.

`CC1(c2ccc3[nH]c([C@@H](N)CO)nc3c2)CC1` gave a 50% inhibitory concentration (IC50) in data set [1] of 593 nM.

Compound `C[C@H](O)[C@@H](N)c1nc2cc(-c3ccc(C#N)cc3)ccc2[nH]1` had an IC50 in data set [1] of 579 nM.

Turning to `CCC(C)c1ccc2[nH]c([C@@H](N)CO)nc2c1` (stereo partly drawn), in data set [1], it took 708 nM to reach half-maximal inhibition (IC50).

Take `C[C@@H](O)[C@H](N)c1nc2cc(S(F)(F)(F)(F)F)ccc2[nH]1`: inhibition in data set [1] was half-maximal at 95 nM (IC50).

In [1], `CN[C@@H](CC(N)=O)c1nc2cc(C(C)(C)C)ccc2[nH]1` came in with a 50% inhibitory concentration (IC50) of 742 nM.

`CC(C)(C)c1ccc2[nH]c(C(C)(C)N)nc2c1` came in with an IC50 in data set [1] of 607 nM. In data set [30], this compound came in with an inhibition at 10 µM of 12%.

In data set [1], `CO[C@H](C)[C@H](N)c1nc2cc(-c3ccc(C#N)cc3F)ccc2[nH]1` returned an IC50 of 18 nM.
